Results taken from ChEMBL document CHEMBL1671766, “In vitro activities of several antimicrobial agents against recently isolated and genotyped Chlamydia trachomatis urogenital serovars D through K” (2010).

Legend:
Assay type in all cases: functional, LLC-MK2
[1] = tested on: Chlamydia trachomatis; experiment: Antimicrobial activity against Chlamydia trachomatis serovar D infected in […] monolayers assessed as reduction in number of microbial inclusions after 48 hrs
[2] = tested on: Chlamydia trachomatis; experiment: Antimicrobial activity against Chlamydia trachomatis serovar E infected in […] monolayers assessed as reduction in number of microbial inclusions after 48 hrs
[3] = tested on: Chlamydia trachomatis; experiment: Antimicrobial activity against Chlamydia trachomatis serovar F infected in […] monolayers assessed as reduction in number of microbial inclusions after 48 hrs
[4] = tested on: Chlamydia trachomatis; experiment: Antimicrobial activity against Chlamydia trachomatis serovar G infected in […] monolayers assessed as reduction in number of microbial inclusions after 48 hrs
[5] = tested on: Chlamydia trachomatis; experiment: Antimicrobial activity against Chlamydia trachomatis serovar H infected in […] monolayers assessed as reduction in number of microbial inclusions after 48 hrs
[6] = tested on: Chlamydia trachomatis; experiment: Antimicrobial activity against Chlamydia trachomatis serovar I infected in […] monolayers assessed as reduction in number of microbial inclusions after 48 hrs
[7] = tested on: Chlamydia trachomatis; experiment: Antimicrobial activity against Chlamydia trachomatis serovar J infected in […] monolayers assessed as reduction in number of microbial inclusions after 48 hrs
[8] = tested on: Chlamydia trachomatis; experiment: Antimicrobial activity against Chlamydia trachomatis serovar K infected in […] monolayers assessed as reduction in number of microbial inclusions after 48 hrs
[9] = tested on: Chlamydia trachomatis; experiment: Bactericidal activity against Chlamydia trachomatis serovar D infected in […] monolayers assessed as reduction in number of microbial inclusions after 48 hrs
[10] = tested on: Chlamydia trachomatis; experiment: Bactericidal activity against Chlamydia trachomatis serovar E infected in […] monolayers assessed as reduction in number of microbial inclusions after 48 hrs
[11] = tested on: Chlamydia trachomatis; experiment: Bactericidal activity against Chlamydia trachomatis serovar F infected in […] monolayers assessed as reduction in number of microbial inclusions after 48 hrs
[12] = tested on: Chlamydia trachomatis; experiment: Bactericidal activity against Chlamydia trachomatis serovar G infected in […] monolayers assessed as reduction in number of microbial inclusions after 48 hrs
[13] = tested on: Chlamydia trachomatis; experiment: Bactericidal activity against Chlamydia trachomatis serovar H infected in […] monolayers assessed as reduction in number of microbial inclusions after 48 hrs
[14] = tested on: Chlamydia trachomatis; experiment: Bactericidal activity against Chlamydia trachomatis serovar I infected in […] monolayers assessed as reduction in number of microbial inclusions after 48 hrs
[15] = tested on: Chlamydia trachomatis; experiment: Bactericidal activity against Chlamydia trachomatis serovar J infected in […] monolayers assessed as reduction in number of microbial inclusions after 48 hrs
[16] = tested on: Chlamydia trachomatis; experiment: Bactericidal activity against Chlamydia trachomatis serovar K infected in […] monolayers assessed as reduction in number of microbial inclusions after 48 hrs
[17] = tested on: Chlamydia trachomatis; experiment: Antimicrobial activity against Chlamydia trachomatis Ic Cal-8 serovar D infected in […] monolayers assessed as reduction in number of microbial inclusions after 48 hrs
[18] = tested on: Chlamydia trachomatis; experiment: Antimicrobial activity against Chlamydia trachomatis Bour serovar E infected in […] monolayers assessed as reduction in number of microbial inclusions after 48 hrs
[19] = tested on: Chlamydia trachomatis; experiment: Antimicrobial activity against Chlamydia trachomatis 580 serovar H infected in […] monolayers assessed as reduction in number of microbial inclusions after 48 hrs
[20] = tested on: Chlamydia trachomatis; experiment: Antimicrobial activity against Chlamydia trachomatis UW-36 serovar J infected in […] monolayers assessed as reduction in number of microbial inclusions after 48 hrs; conditions: J/UW-36, 48 h

MIC [1] | MIC [2] | MIC [3] | MIC [4] | MIC [5] | MIC [6] | MIC [7] | MIC [8] | MIC [17] | MIC [18] | MIC [19] | SMILES | MBC [9] | MBC [10] | MBC [11] | MBC [12] | MBC [13] | MBC [14] | MBC [15] | MBC [16] | MBC [17] | other results
0.5 mg/L | 0.5 mg/L | 0.5 mg/L | 0.5 mg/L | 0.5 mg/L | 0.5 mg/L | 1 mg/L | 0.5 mg/L | 0.5 mg/L | 0.5 mg/L | 1 mg/L | CC[C@H]1OC(=O)[C@H](C)[C@@H](O[C@H]2C[C@@](C)(OC)[C@@H](O)[C@H](C)O2)[C@H](C)[C@@H](O[C@@H]2O[C@H](C)C[C@H](N(C)C)[C@H]2O)[C@](C)(O)C[C@@H](C)C(=O)[C@H](C)[C@@H](O)[C@]1(C)O [ERYTHROMYCIN] | 1 mg/L | 1 mg/L | 1 mg/L | 1 mg/L | 1 mg/L | 1 mg/L | 2 mg/L | 1 mg/L | 1 mg/L | MIC [20]: 0.5 mg/L
0.03 mg/L | 0.015 mg/L | 0.015 mg/L | 0.03 mg/L | 0.03 mg/L | 0.015 mg/L | 0.03 mg/L | 0.015 mg/L | 0.03 mg/L | 0.03 mg/L | 0.06 mg/L | CC[C@H]1OC(=O)[C@H](C)[C@@H](O[C@H]2C[C@@](C)(OC)[C@@H](O)[C@H](C)O2)[C@H](C)[C@@H](O[C@@H]2O[C@H](C)C[C@H](N(C)C)[C@H]2O)[C@](C)(OC)C[C@@H](C)C(=O)[C@H](C)[C@@H](O)[C@]1(C)O [CLARITHROMYCIN] | 0.03 mg/L | 0.03 mg/L | 0.03 mg/L | 0.06 mg/L | 0.06 mg/L | 0.03 mg/L | 0.06 mg/L | 0.03 mg/L | 0.06 mg/L | MIC [20]: 0.06 mg/L
0.25 mg/L | 0.25 mg/L | 0.5 mg/L | 0.5 mg/L | 0.25 mg/L | 0.5 mg/L | 0.25 mg/L | 0.5 mg/L | 0.25 mg/L | 0.25 mg/L | 0.25 mg/L | CC[C@H]1OC(=O)[C@H](C)[C@@H](O[C@H]2C[C@@](C)(OC)[C@@H](O)[C@H](C)O2)[C@H](C)[C@@H](O[C@@H]2O[C@H](C)C[C@H](N(C)C)[C@H]2O)[C@](C)(O)C[C@@H](C)CN(C)[C@H](C)[C@@H](O)[C@]1(C)O [AZITHROMYCIN] | 0.5 mg/L | 1 mg/L | 0.5 mg/L | 1 mg/L | 1 mg/L | 1 mg/L | 0.5 mg/L | 0.5 mg/L | 1 mg/L | MIC [20]: 0.5 mg/L
0.03 mg/L | 0.03 mg/L | 0.03 mg/L | 0.03 mg/L | 0.03 mg/L | 0.06 mg/L | 0.06 mg/L | 0.03 mg/L | 0.03 mg/L | 0.03 mg/L | 0.06 mg/L | C[C@H]1c2cccc(O)c2C(=O)C2=C(O)[C@]3(O)C(=O)C(C(N)=O)=C(O)[C@@H](N(C)C)[C@@H]3[C@@H](O)[C@@H]21.O [DOXYCYCLINE] | 0.06 mg/L | 0.06 mg/L | 0.06 mg/L | 0.06 mg/L | 0.06 mg/L | 0.06 mg/L | 0.06 mg/L | 0.06 mg/L | 0.06 mg/L | MIC [20]: 0.5 mg/L

SMILES | MIC [1] | MIC [2] | MIC [3] | MIC [4] | MIC [5] | MIC [6] | MIC [7] | MIC [8] | MIC [17] | MIC [18] | MIC [19] | MBC [9] | MBC [10] | MBC [11] | MBC [12] | MBC [13] | MBC [14] | MBC [15] | MBC [16] | MBC [17] | other results
C[C@H]1COc2c(N3CCN(C)CC3)c(F)cc3c(=O)c(C(=O)O)cn1c23.C[C@H]1COc2c(N3CCN(C)CC3)c(F)cc3c(=O)c(C(=O)O)cn1c23.O [LEVOFLOXACIN] | 0.5 mg/L | 0.5 mg/L | 0.5 mg/L | 0.25 mg/L | 0.5 mg/L | 0.5 mg/L | 0.5 mg/L | 0.5 mg/L | 0.5 mg/L | 0.5 mg/L | 0.5 mg/L | 0.5 mg/L | 0.5 mg/L | 0.5 mg/L | 0.25 mg/L | 0.5 mg/L | 0.5 mg/L | 0.5 mg/L | 0.5 mg/L | 0.5 mg/L | MBC [18]: 0.5 mg/L; MBC [19]: 0.5 mg/L; MBC [20]: 0.5 mg/L; MIC [20]: 0.5 mg/L
